Patent EP4782453A1 (Beyang Therapeutics Co., Ltd., priority 2023, dated 2025)
pIC50: −log10 of the molar value. Where two headings read alike, the source gives them in different places.

Columns and labels:
[1] = target: T1, Menin-MLL (Homo sapiens, UniProt O00255); test: Inhibitory activity against Menin-MLL binding (fluorescence polarization); conditions: 150 nM His-Menin, 15 nM FITC-MLL, 25°C for 60 min
T1 construct: His-Menin (M1-L615 end); purchased BIORTUS BP9210
T1 sequence (O00255 1-615 isoform O00255-1): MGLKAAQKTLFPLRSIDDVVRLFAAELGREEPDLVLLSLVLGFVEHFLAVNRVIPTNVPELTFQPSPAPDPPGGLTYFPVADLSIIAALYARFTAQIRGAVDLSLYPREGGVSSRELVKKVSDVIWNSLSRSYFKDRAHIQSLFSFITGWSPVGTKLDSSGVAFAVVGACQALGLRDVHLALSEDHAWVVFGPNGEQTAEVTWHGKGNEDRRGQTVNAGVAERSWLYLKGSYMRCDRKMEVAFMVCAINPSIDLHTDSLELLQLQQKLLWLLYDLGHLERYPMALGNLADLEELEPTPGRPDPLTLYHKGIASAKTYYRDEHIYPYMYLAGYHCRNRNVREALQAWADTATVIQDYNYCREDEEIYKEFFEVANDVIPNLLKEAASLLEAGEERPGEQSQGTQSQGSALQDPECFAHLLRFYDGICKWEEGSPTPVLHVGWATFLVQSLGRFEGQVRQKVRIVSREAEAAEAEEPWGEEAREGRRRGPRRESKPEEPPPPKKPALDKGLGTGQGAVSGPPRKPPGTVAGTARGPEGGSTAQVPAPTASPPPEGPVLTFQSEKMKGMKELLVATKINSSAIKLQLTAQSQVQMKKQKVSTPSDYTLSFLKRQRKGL
In short: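 Fluorescence polarization competition: compound and 150 nM His-tagged menin (residues M1-L615) sit 15 min at 25 °C in pH 7.5 HEPES buffer with NaCl, DTT and BSA; 15 nM FITC-labelled MLL peptide then binds for 60 min. IC50 fitted sigmoidally from mP values, duplicate wells.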

[2] = tested on: MOLM-13 (carrying MLL-AF9); test: Inhibition of proliferation of human tumor cells (Alamar Blue, 7 days), MOLM-13; assay type: cell-based; conditions: MOLM-13 cells (carrying MLL-AF9), method calls the value GI50
In short: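 GI50 values reflect growth inhibition over 7 days, read by Alamar Blue. Seeding density was 4,000 cells/well except KG-1a (3,000 cells/well); each line grew in its own FBS-containing medium at 37°C.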

[3] = tested on: MV-4-11 (carrying MLL-AF4); test: Inhibition of proliferation of human tumor cells (Alamar Blue, 7 days), MV-4-11; assay type: cell-based; conditions: MV-4-11 cells (carrying MLL-AF4), method calls the value GI50
Source text: Experimental Example 2: Evaluation of Inhibitory Activity of Compounds Against Proliferation of Human Tumor Cells
• Human acute lymphoblastic leukemia cells MV-4-11, purchased from American Type Culture Collection, Catalog Number: CRL-9591; • Human acute myeloid leukemia cells MOLM-13, purchased from COBIOER BIOSCIENCES CO., LTD, Catalog Number: CBP60678; • Human acute myeloid leukemia cells KG-1a, purchased from American Type Culture Collection, Catalog Number: CCL-246.1; • Inverted Microscope, purchased from Olympus Tokyo; • Countess™ Automated Cell Counter, purchased from Invitrogen, Model: C10281; and • Multilabel Reader, purchased from Bio-Tek, Model: Synergy HT.
MV-4-11 cells were cultured in an IMDM medium containing 10% fetal bovine serum, KG-a cells were cultured in an IMDM medium containing 20% fetal bovine serum, or MOLM-13 cells were cultured in an RPMI-1640 medium containing 20% fetal bovine serum, each supplemented with 100 U·mL^-1 penicillin and 100 µg·mL^-1 streptomycin. These cells were cultured at 37°C with 5% CO2. The suspensions of individual cell lines were prepared in their respective media and seeded into 96-well plates at a density of 4,000 cells/well for MV-4-11 and MOLM-13 cells, or 3,000 cells/well for KG-1a cells. On the day of the experiment, a compound stock solution was diluted in a 3-fold or 4-fold gradient using DMSO. Each gradient-diluted stock solution was then further diluted 250-fold with a complete medium to prepare a series of working solutions at different concentrations. Subsequently, 100 µL of working solution (containing a 2-fold concentration series of the test compound) was added to each well, with duplicate wells set up for each concentration.
Seven days after compound addition (on Day 7), an Alamar Blue assay reagent (MCE, HY-111391 / CS-0040317) was added to measure the fluorescence intensity in each well. Wells containing the cells in the growth medium supplemented with 0.1% DMSO (Day 7) served as high-read control wells. The readouts from the wells containing the cells in the growth medium supplemented with 0.1% DMSO on the day of compound addition (Day 0) served as low-reading control well. GraphPad Prism software was used to calculate the concentration required to inhibit 50% of cell proliferation (GI50), which serves as a cell proliferation inhibition activity index.

[4] = fluorescence polarization, read-out: Menin-MLL IC50
[5] = Menin-MLL IC50, fluorescence polarization

pIC50 [1, 4] | pIC50 ([2]; Homo sapiens, 168 h) | pIC50 ([3]; Homo sapiens, MV4-11, 168 h) | pIC50 [2] | pIC50 [3] | Structure (SMILES) | pIC50 [1, 5] | pIC50 ([2]; Homo sapiens, MOLM-13, 168 h)
8.52 | 8.15 | 8.80 | – | – | CO[C@@H]1CN(CCC[C@H](C(C)C)N2CC(c3cc(-c4ccc(F)cc4C(=O)N4CCOC[C@H]4C)c4c(F)nc(C)n4c3)C2)C[C@H]1O (relative stereo) [Example 291, (3r,4r)-1-[(4R)-4-[3-(1-fluoro-8-{4-fluoro-2-[(3R)-3-methylmorpholin-4-carbonyl]phenyl}-3-methylimidazo[1,5-a]pyridin-6-yl)azacyclobutan-1-yl]-5-methylhexyl]-4-methoxypyrrolidin-3-ol] | – | –
8.26 | 8.27 | 8.96 | – | – | CNCCCC(C(C)C)N1CC(c2cc(-c3ccc(F)cc3C(=O)N(CC(F)F)C(C)C)c3c(F)nc(C)n3c2)C1 (stereo not shown) [Example 141, N-(2,2-difluoroethyl)-5-fluoro-2-(1-fluoro-3-methyl-6-{1-[2-methyl-6-(methylamino)hexan-3-yl]azacyclobutan-3-yl}imidazo[1,5-a]pyridin-8-yl)-N-(isopropyl)benzamide] | – | –
8.05 | 8.44 | 9.02 | – | – | CNCCCC(C(C)C)N1CC(c2cc(-c3ccc(F)cc3C(=O)N(CC(F)F)C(C)C)c3cnc(C)n3c2)C1 (stereo not shown) [Example 148] | – | –
7.61 | 7.44 | 7.68 | – | – | CCS(=O)(=O)N[C@@H]1CC[C@@H](CN2CC(c3cc(-c4ccc(F)cc4C(=O)N(CC(F)F)C(C)C)c4cnc(C)n4c3)C2)OC1 [Example 150, N-(2,2-difluoroethyl)-2-[6-(1-{[(2S,5R)-5-ethanesulfonamidooxacyclohexan-2-yl]methyl}azacyclobutan-3-yl)-3-methylimidazo[1,5-a]pyridin-8-yl]-5-fluoro-N-(isopropyl)benzamide] | – | –
9.00 | 7.82 | – | – | – | CCN(C(=O)c1cc(F)ccc1-c1cc(C2CN([C@H](CCCN3CCN(C)[C@H](CO)C3)C(C)C)C2)cn2c(C)ncc12)C(C)C [Example 507] | – | –
8.96 | 7.96 | – | – | – | CCN(C(=O)c1cc(F)ccc1-c1cc(C2CN(C(CCCN3CCN(C)C(COC)C3)C(C)C)C2)cn2c(C)ncc12)C(C)C (stereo not shown) [Example 508] | – | –
8.96 | 8.14 | – | – | – | CCN(C(=O)c1cc(F)ccc1-c1cc(C2CN([C@H](CCCN3CCN(C)[C@H](COC)C3)C(C)C)C2)cn2c(C)ncc12)C(C)C [Example 509] | – | –
9.05 | 8.00 | – | – | – | CCN(C(=O)c1cc(F)ccc1-c1cc(C2CN([C@H](CCCN(C)CCOC)C(C)C)C2)cn2c(C)ncc12)C(C)C [Example 510] | – | –

More lines, now with the values behind:

Structure (SMILES) | pIC50 [1, 4] | pIC50 ([2]; Homo sapiens, 168 h) | pIC50 ([3]; Homo sapiens, MV4-11, 168 h) | pIC50 [2] | pIC50 [3] | pIC50 [1, 5] | pIC50 ([2]; Homo sapiens, MOLM-13, 168 h)
CCN(C(=O)c1cc(F)ccc1-c1cc([C@H]2CCN(C[C@]3(O)CC[C@H](NS(=O)(=O)CC)CC3)C2)cc2c1cnn2C)C(C)C [Compound 55-1-1, N-ethyl-5-fluoro-2-[1-methyl-6-[(3R)-1-{[(1r,4s)-4-ethanesulfonamido-1-hydroxylcyclohexyl]methyl}pyrrolidin-3-yl]-1H-indazol-4-yl]-N-(isopropyl)benzamide] | 7.85 | – | – | 7.36 | 7.73 | – | –
CCN(C(=O)c1cc(F)ccc1-c1cc(C2CN(C[C@H]3CC[C@H](NS(=O)(=O)CC)CC3)C2)cn2c(C)ncc12)C(C)C [Example 120, N-ethyl-5-fluoro-2-[3-methyl-6-(1-{[(1r,4r)-4-ethanesulfonamidocyclohexyl]methyl}-azacyclobutan-3-yl)imidazo[1,5-a]pyridin-8-yl]-N-(isopropyl)benzamide] | – | – | 8.07 | – | – | 8.07 | 7.53
C=C1C[C@@H]2CC[C@H]1[C@@H](C(=O)N1CC(c3cc(-c4ccc(F)cc4C(=O)N(CC(F)F)C(C)C)c4cnc(C)n4c3)C1)N2 [Example 121, N-(2,2-difluoroethyl)-5-fluoro-2-(3-methyl-6-{1-[(1S,3S,4R)-5-methylene-2-azabicyclo[2.2.2]octan-3-carbonyl]azacyclobutan-3-yl}imidazo[1,5-a]pyridin-8-yl)-N-(isopropyl)benzamide] | 7.63 | 6.89 | 7.38 | – | – | – | –
CCS(=O)(=O)N[C@H]1CC[C@H](CN2CCC(c3cc(-c4ccc(F)cc4C(=O)N(CC(F)F)C(C)C)c4cnc(C)n4c3)CC2)CC1 [Example 128] | – | – | 7.25 | – | – | 7.43 | 7.52
Cc1nc(F)c2c(-c3ccc(F)cc3C(=O)N(CC(F)F)C(C)C)cc(C3CN(C(=O)[C@@H]4CCCCN4)C3)cn12 [Example 131, N-(2,2-difluoroethyl)-5-fluoro-2-(1-fluoro-3-methyl-6-{1-[(2S)-piperidin-2-carbonyl]azacyclobutan-3-yl}imidazo[1,5-a]pyridin-8-yl)-N-(isopropyl)benzamide] | 7.81 | 7.40 | 7.30 | – | – | – | –
CCS(=O)(=O)N[C@H]1CC[C@H](CN2CC(c3cc(-c4ccc(F)cc4C(=O)N(CC(F)F)C(C)C)c4c(F)nc(C)n4c3)C2)CC1 [Example 132, N-(2,2-difluoroethyl)-5-fluoro-2-[1-fluoro-3-methyl-6-(1-{[(1r,4r)-4-ethanesulfonamidocyclohexyl]methyl}-azacyclobutan-3-yl)imidazo[1,5-a]pyridin-8-yl]-N-(isopropyl)benzamide] | – | – | 7.77 | – | – | 8.22 | 7.80
Cc1ncc2c(-c3ccc(F)cc3C(=O)N(CC(F)F)C(C)C)cc(C3CN(C(=O)[C@@H]4CCCCN4)C3)cn12 [Example 133] | 7.52 | 7.51 | 7.31 | – | – | – | –
CCS(=O)(=O)N[C@H]1CC[C@H](CN2CCC(c3cc(-c4ccc(F)cc4C(=O)N(CC(F)F)C(C)C)c4cnccn34)CC2)CC1 [Example 139, N-(2,2-difluoroethyl)-5-fluoro-N-(isopropyl)-2-[6-(1-{[(1r,4r)-4-ethanesulfonamidocyclohexyl]methyl}piperidin-4-yl)pyrrolo[1,2-a]pyrazin-8-yl]benzamide] | – | – | 7.36 | – | – | 7.38 | 7.02
CNCCCC(C(C)C)N1CC(c2cc(-c3ccc(F)cc3C(=O)N(CC(F)F)C(C)C)c3cnccn23)C1 (stereo not shown) [Example 146, N-(2,2-difluoroethyl)-5-fluoro-2-(6-{1-[2-methyl-6-(methylamino)hexan-3-yl]azacyclobutan-3-yl}pyrrolo[1,2-a]pyrazin-8-yl)-N-(isopropyl)benzamide] | 7.34 | – | 7.05 | – | – | – | –
CCS(=O)(=O)N[C@@H]1CC[C@@H](CN2CC(c3cc(-c4ccc(F)cc4C(=O)N(CC(F)F)C(C)C)c4c(F)nc(C)n4c3)C2)OC1 [Example 151] | 7.81 | 7.21 | 7.40 | – | – | – | –
